Data as given in ChEMBL document CHEMBL1201862, “PubChem BioAssay data set” (2004).
pIC50: −log10 of the molar value. The source made the active and inactive calls.

Columns and labels:
[1] = target: T1, Dual specificity protein phosphatase 3 (Homo sapiens, UniProt P51452); test: SAR VHR1 Fluorescent Assay for In Vitro dose response studies. [Related pubchem assays (depositor defined):AID1654, AID1661, AID1878, AID1992, AID2004, AID2070, AID2085]; assay type: functional
[2] = target: DNA (cytosine-5)-methyltransferase 1 (Homo sapiens, UniProt P26358); test: DNMT1 methyltransferase inhibitors, confirmation, biochemical, fluorescent molecular beacon (AID 602386); assay type: functional
Sequence of DNA (cytosine-5)-methyltransferase 1 (P26358 whole entry): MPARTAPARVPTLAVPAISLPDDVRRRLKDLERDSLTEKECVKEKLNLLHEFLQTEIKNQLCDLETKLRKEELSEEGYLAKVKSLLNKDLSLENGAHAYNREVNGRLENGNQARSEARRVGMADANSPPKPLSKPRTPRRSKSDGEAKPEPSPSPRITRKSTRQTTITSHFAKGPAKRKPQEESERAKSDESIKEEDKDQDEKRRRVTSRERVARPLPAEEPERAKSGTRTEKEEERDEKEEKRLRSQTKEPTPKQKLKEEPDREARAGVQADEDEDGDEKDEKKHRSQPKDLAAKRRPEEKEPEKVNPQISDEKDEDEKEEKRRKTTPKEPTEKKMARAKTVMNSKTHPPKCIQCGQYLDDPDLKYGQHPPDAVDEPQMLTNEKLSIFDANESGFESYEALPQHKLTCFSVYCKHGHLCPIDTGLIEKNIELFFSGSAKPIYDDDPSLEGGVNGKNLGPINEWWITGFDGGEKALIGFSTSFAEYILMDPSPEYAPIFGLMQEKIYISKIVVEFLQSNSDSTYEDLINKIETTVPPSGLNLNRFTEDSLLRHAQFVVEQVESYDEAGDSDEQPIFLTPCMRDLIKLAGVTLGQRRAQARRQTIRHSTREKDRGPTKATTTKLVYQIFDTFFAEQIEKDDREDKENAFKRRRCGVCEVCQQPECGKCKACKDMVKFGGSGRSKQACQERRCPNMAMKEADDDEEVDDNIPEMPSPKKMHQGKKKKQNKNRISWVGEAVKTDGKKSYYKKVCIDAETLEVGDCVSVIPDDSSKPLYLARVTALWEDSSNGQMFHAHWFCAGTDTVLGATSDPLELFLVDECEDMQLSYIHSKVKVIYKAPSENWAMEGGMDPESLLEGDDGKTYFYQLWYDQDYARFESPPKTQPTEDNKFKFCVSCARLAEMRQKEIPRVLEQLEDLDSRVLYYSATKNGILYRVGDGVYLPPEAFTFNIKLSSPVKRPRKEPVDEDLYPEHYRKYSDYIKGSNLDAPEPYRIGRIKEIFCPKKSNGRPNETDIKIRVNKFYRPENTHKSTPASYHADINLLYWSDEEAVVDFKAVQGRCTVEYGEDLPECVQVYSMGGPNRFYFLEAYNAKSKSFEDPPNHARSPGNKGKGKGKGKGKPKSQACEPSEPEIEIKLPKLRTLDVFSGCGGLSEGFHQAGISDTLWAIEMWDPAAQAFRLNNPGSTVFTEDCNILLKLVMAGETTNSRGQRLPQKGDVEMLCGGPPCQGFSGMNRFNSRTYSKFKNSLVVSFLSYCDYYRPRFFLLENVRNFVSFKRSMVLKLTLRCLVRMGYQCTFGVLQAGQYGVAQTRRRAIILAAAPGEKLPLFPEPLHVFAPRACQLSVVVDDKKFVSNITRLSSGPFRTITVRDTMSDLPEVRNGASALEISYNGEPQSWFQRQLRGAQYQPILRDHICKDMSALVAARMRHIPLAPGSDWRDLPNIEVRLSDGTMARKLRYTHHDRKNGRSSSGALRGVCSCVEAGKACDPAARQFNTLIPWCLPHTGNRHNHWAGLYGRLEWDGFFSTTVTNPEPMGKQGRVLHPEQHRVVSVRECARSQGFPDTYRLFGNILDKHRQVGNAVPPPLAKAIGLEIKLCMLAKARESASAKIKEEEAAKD

[3] = target: T2, Low molecular weight phosphotyrosine protein phosphatase (Homo sapiens, UniProt P24666); assay type: functional; conditions: read-out: IC50_Mean;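 also: Dose-response confirmation assay measuring inhibition of LMPTP enzyme activity by fluorescence intensity read-out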
T2 sequence (P24666 whole entry): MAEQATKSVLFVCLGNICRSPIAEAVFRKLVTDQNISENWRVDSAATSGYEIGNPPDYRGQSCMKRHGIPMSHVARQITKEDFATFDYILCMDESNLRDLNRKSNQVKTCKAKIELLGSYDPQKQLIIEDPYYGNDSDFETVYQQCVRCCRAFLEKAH

[4] = target: T3, Small ubiquitin-related modifier 1 (Homo sapiens, UniProt P63165); test: inhibitors of SUMO1 partner interactions, dose response, biochemical, FRET (AID 624383); assay type: functional; conditions: read-out: IC50_Mean
T3 sequence (P63165 whole entry): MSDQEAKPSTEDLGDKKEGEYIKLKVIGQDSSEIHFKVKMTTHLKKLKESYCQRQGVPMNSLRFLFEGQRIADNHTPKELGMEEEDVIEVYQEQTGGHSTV

[5] = target: T1, Dual specificity protein phosphatase 3; test: SAR VHR1 absorbance Assay for In Vitro dose response studies. [Related pubchem assays (depositor defined):AID1654, AID1661, AID1878, AID1992, AID2004]
[6] = target: T3, Small ubiquitin-related modifier 1; test: inhibitors of SUMO1 peptide binding, dose response, biochemical, fluorescence polarization, uHTS hits (AID 624382); assay type: functional; conditions: read-out: IC50_Mean
[7] = target: T4, Dual specificity protein phosphatase 6 (Rattus norvegicus, UniProt Q64346); assay type: functional;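 also: confirmatory in vitro dose-response testing of MKP-3 inhibition; recombinant His-tagged MKP-3 made in E. coli BL21 with OMFP substrate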
T4 sequence (Q64346 whole entry): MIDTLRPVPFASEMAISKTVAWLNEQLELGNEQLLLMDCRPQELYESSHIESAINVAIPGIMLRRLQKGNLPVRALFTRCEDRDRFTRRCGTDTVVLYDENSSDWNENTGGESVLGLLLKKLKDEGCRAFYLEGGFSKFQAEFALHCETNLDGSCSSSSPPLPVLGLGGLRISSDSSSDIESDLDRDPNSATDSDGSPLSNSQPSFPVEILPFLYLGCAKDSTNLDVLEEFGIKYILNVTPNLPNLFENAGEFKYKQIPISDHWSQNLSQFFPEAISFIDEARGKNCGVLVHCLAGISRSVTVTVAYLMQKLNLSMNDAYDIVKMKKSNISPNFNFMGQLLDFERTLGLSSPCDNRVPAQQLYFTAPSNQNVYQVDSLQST

[8] = target: Tyrosine-protein phosphatase non-receptor type 12 (Homo sapiens, UniProt Q05209); test: SAR Selectivity Analysis of small molecule inhibitors of PEST using pCAP in a fluorescence assay. [Related pubchem assays (depositor defined):AID1779, AID1784, AID2135]; assay type: functional
Sequence of Tyrosine-protein phosphatase non-receptor type 12 (Q05209 whole entry): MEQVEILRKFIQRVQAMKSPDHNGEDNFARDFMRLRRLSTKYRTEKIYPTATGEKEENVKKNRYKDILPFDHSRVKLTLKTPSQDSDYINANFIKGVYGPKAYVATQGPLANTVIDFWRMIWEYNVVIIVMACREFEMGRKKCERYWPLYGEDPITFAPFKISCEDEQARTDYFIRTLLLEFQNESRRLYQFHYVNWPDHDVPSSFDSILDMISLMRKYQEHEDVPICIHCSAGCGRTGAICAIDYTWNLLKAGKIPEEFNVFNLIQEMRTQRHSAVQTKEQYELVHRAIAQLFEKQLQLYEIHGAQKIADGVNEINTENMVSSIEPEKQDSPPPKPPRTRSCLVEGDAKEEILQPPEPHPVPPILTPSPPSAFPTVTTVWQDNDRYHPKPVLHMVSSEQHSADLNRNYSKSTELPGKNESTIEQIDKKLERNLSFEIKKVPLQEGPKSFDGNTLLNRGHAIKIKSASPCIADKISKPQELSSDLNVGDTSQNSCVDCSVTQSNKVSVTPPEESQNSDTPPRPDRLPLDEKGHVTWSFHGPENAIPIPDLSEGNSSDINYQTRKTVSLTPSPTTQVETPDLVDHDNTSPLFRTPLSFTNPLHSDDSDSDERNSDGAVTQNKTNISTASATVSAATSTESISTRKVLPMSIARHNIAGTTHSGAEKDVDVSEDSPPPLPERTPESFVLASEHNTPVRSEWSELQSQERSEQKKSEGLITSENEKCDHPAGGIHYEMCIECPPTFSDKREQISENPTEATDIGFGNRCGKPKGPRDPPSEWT

[9] = target: T5, Tyrosine-protein phosphatase non-receptor type 22 (Homo sapiens, UniProt Q9Y2R2); test: SAR LYP1 Fluorescent Assay using OMFP substrate for In Vitro dose response studies - Set 3. [Related pubchem assays (depositor defined):AID1779, AID1784, AID2140, AID2686]; assay type: functional
T5 sequence (Q9Y2R2 whole entry): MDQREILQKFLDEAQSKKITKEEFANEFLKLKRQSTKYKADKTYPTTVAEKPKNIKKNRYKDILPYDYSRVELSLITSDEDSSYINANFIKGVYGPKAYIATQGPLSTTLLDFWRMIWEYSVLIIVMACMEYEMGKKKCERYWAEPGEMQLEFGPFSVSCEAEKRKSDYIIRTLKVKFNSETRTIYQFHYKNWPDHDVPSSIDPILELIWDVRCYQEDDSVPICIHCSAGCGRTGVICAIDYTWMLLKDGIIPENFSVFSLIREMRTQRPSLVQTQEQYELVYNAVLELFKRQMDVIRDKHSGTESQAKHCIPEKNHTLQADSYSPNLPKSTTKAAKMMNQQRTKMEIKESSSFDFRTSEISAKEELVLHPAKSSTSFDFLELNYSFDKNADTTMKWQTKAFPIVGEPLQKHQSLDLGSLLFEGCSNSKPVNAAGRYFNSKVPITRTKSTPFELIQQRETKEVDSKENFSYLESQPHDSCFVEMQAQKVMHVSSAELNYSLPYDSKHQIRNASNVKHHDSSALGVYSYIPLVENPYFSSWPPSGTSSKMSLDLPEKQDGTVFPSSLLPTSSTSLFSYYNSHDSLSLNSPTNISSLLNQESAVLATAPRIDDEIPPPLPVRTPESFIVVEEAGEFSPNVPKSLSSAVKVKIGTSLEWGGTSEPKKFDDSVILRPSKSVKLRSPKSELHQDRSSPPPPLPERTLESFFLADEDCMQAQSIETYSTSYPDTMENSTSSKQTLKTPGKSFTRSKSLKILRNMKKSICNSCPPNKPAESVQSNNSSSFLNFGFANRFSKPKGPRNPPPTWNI

[10] = target: T6, Tyrosine-protein phosphatase non-receptor type 7 (Homo sapiens, UniProt P35236); test: HePTP (PTPN7) phosphatase inhibitor potency, SAR follow-up, biochemical, set 2 (AID 449736); assay type: functional
T6 sequence (P35236 whole entry): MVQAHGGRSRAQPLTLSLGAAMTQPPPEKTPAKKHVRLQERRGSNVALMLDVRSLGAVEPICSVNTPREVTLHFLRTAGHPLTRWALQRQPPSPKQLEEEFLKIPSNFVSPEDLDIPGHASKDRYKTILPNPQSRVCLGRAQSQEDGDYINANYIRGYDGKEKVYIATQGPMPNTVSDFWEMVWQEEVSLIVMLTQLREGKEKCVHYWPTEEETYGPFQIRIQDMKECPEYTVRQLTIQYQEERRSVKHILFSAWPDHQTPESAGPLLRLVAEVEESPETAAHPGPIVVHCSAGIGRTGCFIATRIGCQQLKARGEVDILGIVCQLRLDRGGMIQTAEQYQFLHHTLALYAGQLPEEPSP

[11] = target: T6, Tyrosine-protein phosphatase non-receptor type 7; test: redox-dependent HePTP inhibition, mechanism study, biochemical, fluorescence (AID 2068); assay type: functional
[12] = target: T5, Tyrosine-protein phosphatase non-receptor type 22; test: LYP phosphatase inhibition for selectivity, dose response, selectivity assay for LMPTP inhibitor project, biochemical, fluorescence, LYP catalytic domain (AID 652006); assay type: functional; conditions: read-out: IC50_Mean
[13] = target: T1, Dual specificity protein phosphatase 3; test: MOA VHR1 Fluorescent secondary assay for identification of redox-state modulating compounds. [Related pubchem assays (depositor defined):AID1654, AID1661, AID1878, AID1957]
[14] = target: T5, Tyrosine-protein phosphatase non-receptor type 22; test: LYP (PTPN22) phosphatase inhibitor potency, SAR follow-up, biochemical, pCAP fluorogenic substrate, fluorescence, set 3 (AID 449727); assay type: functional
[15] = target: T7, Kappa-type opioid receptor (Homo sapiens, UniProt P41145); assay type: functional
T7 sequence (P41145 whole entry): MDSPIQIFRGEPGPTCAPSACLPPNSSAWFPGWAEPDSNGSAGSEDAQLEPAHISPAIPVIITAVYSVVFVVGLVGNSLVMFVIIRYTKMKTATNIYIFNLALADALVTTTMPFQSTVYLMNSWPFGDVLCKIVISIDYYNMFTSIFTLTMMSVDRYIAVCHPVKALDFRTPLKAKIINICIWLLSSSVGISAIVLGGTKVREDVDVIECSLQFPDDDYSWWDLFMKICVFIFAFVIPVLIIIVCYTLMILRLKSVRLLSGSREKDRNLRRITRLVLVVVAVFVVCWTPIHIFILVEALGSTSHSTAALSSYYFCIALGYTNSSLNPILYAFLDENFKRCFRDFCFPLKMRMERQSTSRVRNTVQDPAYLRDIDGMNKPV

[16] = target: Beta-galactosidase (Escherichia coli, UniProt Q8VNN2); assay type: functional
[17] = target: T7, Kappa-type opioid receptor; assay type: functional; remark: listed apart in the source
[18] = target: T8, Streptokinase A (Streptococcus pyogenes serotype M1, UniProt P10520); test: S. pyogenes streptokinase expression inhibitors, potency, dose response, plasminogen activation absorbance, OD405 (AID 1914); assay type: functional, Streptococcus pyogenes M1 GAS;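 also: secreted streptokinase activity via plasminogen activation per viability signal from cell pellet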
T8 sequence (P10520 whole entry): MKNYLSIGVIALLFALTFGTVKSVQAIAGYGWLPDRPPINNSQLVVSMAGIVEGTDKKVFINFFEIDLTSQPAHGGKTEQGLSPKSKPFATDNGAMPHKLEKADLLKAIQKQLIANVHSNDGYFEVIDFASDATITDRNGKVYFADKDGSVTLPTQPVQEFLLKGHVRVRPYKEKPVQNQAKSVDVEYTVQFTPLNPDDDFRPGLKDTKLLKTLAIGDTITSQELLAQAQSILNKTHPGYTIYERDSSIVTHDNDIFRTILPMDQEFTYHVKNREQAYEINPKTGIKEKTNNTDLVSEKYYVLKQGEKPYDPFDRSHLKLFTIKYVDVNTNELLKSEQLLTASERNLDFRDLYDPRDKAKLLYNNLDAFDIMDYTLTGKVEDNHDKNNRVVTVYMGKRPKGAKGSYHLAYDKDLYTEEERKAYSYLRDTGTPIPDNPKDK

[19] = target: T9, Delta-type opioid receptor (Homo sapiens, UniProt P41143); test: HTS Image-Based Screen for Agonists of the DOR Receptor. [Related pubchem assays (depositor defined):AID1777, AID1786, AID2133]; assay type: functional
T9 sequence (P41143 whole entry): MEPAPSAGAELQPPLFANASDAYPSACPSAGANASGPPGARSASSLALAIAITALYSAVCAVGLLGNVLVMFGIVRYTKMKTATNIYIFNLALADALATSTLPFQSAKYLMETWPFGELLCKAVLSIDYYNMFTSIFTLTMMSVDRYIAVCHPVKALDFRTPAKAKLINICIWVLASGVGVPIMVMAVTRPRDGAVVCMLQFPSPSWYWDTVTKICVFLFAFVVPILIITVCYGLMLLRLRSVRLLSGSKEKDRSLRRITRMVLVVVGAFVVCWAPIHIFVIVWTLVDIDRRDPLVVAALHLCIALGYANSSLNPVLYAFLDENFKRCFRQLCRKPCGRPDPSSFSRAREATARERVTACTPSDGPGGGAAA

[20] = target: Paired box protein Pax-8 (Homo sapiens, UniProt Q06710); test: inhibitors of PAX8-driven TPO luciferase reporter, dose response, RMG-I cells, cherry-pick (AID 687027); assay type: functional, cell-based;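 also: luciferase reporter driven by Pax8 target thyroperoxidase promoter measured by SteadyGlo luminescence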
Sequence of Paired box protein Pax-8 (Q06710 whole entry): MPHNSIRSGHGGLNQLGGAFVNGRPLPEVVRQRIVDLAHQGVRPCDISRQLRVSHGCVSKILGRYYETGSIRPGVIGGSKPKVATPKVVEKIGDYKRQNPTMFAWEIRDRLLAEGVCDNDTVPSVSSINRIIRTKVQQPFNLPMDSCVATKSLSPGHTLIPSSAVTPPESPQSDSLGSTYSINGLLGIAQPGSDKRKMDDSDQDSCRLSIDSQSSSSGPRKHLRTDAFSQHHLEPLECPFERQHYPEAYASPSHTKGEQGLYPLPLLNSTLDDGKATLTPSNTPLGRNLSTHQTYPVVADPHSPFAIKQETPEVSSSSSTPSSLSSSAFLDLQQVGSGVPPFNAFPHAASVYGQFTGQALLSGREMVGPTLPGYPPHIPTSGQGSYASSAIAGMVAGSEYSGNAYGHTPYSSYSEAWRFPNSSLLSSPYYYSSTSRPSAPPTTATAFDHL

[21] = target: T9, Delta-type opioid receptor; test: HTS Image-Based Screen for Antagonists of the DOR Receptor. [Related pubchem assays (depositor defined):AID1777, AID1785, AID1786, AID2133]; assay type: functional
[22] = target: Mu-type opioid receptor (Homo sapiens, UniProt P35372); test: HTS Image-Based Screen for Agonists of the MOR Receptor. [Related pubchem assays (depositor defined):AID1777, AID1785, AID1786, AID2133]; assay type: functional;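 also: imaging of beta-arrestin GFP recruitment into spots after receptor activation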
Sequence of Mu-type opioid receptor (P35372 whole entry): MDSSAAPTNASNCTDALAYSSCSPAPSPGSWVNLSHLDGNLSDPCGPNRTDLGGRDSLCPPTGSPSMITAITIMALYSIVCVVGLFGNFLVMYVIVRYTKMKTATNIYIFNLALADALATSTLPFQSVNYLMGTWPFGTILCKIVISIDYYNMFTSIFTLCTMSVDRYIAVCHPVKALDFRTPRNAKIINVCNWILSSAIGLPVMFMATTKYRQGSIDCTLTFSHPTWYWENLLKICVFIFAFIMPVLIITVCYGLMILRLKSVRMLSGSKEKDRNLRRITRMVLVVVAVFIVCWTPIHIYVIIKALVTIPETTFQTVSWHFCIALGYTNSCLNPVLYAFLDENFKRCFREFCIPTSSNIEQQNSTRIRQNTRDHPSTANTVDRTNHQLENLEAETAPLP

T1 sequence (P51452 whole entry): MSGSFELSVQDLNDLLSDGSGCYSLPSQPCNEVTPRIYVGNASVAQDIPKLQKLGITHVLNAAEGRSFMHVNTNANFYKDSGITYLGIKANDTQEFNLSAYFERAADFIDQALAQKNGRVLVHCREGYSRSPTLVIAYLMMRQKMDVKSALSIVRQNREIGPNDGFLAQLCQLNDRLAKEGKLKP

Question: `CCOC(=O)C1=C(C)N=c2sc(=Cc3ccc(OCC(=O)O)cc3)c(=O)n2C1c1ccc(Cl)cc1` (configuration not stated) was tested. Which IC50 [1] did it give?
Answer: 3.2 µM (active)

Question: What about the IC50 [2] of the same molecule?
Answer: 8.42 µM (active)

Question: And the IC50 [3]?
Answer: 12.5 µM (active)

Question: And the IC50 [4]?
Answer: 8.82 µM (active)

Question: What about the IC50 [5] of the same molecule?
Answer: 4.23 µM (active)

Question: What about the IC50 [6] of the same molecule?
Answer: > 66.6 µM (inactive)

Question: And the IC50 [7]?
Answer: 41.4 µM (active)

Question: And the IC50 [8]?
Answer: 2.41 µM (active)

Question: What about the IC50 [9] of the same molecule?
Answer: 3.82 µM (active)

Question: And the IC50 [10]?
Answer: 0.419 µM (active)

Question: And the IC50 [11]?
Answer: 0.52 µM (active)

Question: And the IC50 [12]?
Answer: 12 µM (active)

Question: And the IC50 [13]?
Answer: 2.08 µM (active)

Question: What about the IC50 [14] of the same molecule?
Answer: 2.74 µM (active)

Question: `O=c1nc(-c2ccccn2)[nH]c2sc(-c3ccccc3)cc12` was tested. Which pIC50 [15] did it give?
Answer: < 4.49

Question: And the EC50 [16]?
Answer: > 31.5 µM (inactive)

Question: What about the IC50 [17] of the same molecule?
Answer: 1.79 µM (active)

Question: And the EC50 [18]?
Answer: > 150 µM (not active)

Question: And the EC50 [19]?
Answer: > 32 µM (inactive)

Question: What about the AC50 [20] of the same molecule?
Answer: 14 µM (active)

Question: And the IC50 [21]?
Answer: > 32 µM (inactive)

Question: What about the EC50 [22] of the same molecule?
Answer: > 32 µM (inactive)
